US20100311767A1 (priority 2007, published 2010)

Tested on: cultured hippocampal neurons

## ω-agatoxin IVA
  amplitude of miniature PSCs: 90±7%
  frequency of miniature PSCs: 27±7%

## CC(C)NCC(O)c1ccc(O)c(O)c1 (stereo not drawn) [isoproterenol, 4-[1-hydroxy-2-(1-methylethylamino)ethyl]benzene-1,2-diol]
  frequency of spontaneous IPSCs: 122±58%
